Test results taken from PubChem BioAssay (NCI).
“And” between values parts separate entries of the source, which are not always exact repeats. Equal values may be shown once.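 48-hour exposure; five concentrations; linearly interpolated endpoints. GI50 marks 50% less growth. TGI: total growth inhibition.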

Experiments:
Test in all cases: DTP human tumour cell line panel, 48 h
SN12C renal = test system: SN12C renal
NCI-H460 lung = test system: NCI-H460 lung
HL-60(TB) leukemia = test system: HL-60(TB) leukemia
UACC-62 melanoma = test system: UACC-62 melanoma
OVCAR-4 ovarian = test system: OVCAR-4 ovarian
K-562 leukemia = test system: K-562 leukemia
SNB-75 CNS = test system: SNB-75 CNS
RXF 393 renal = test system: RXF 393 renal
MCF7 breast = test system: MCF7 breast
SF-295 CNS = test system: SF-295 CNS
DU-145 prostate = test system: DU-145 prostate
BT-549 breast = test system: BT-549 breast

Row | SMILES | TGI (SN12C renal) | TGI (NCI-H460 lung) [µM] | TGI (HL-60(TB) leukemia) | TGI (UACC-62 melanoma) | TGI (OVCAR-4 ovarian) | TGI (K-562 leukemia) | TGI (SNB-75 CNS) | TGI (RXF 393 renal) [µM] | TGI (MCF7 breast) [µM] | TGI (SF-295 CNS) | TGI (DU-145 prostate) | TGI (BT-549 breast) [µM] | GI50 (UACC-62 melanoma) [µM] | GI50 (SNB-75 CNS) | GI50 (RXF 393 renal) [µM] | GI50 (SF-295 CNS) | GI50 (BT-549 breast) [µM] | GI50 (NCI-H460 lung) | GI50 (K-562 leukemia) | GI50 (MCF7 breast) [µM]
1 | C/C(=C/C(=O)Nc1ccccc1)Nc1onc(C)c1C | > 100 µM | > 100 | > 100 µM | > 100 µM | > 100 µM | > 100 µM | > 100 µM | > 100 | > 100 | > 100 µM |  |  |  |  |  |  |  |  |  | 
2 | O=C1OC(c2ccccc2)=NC1c1ccccc1 (stereo not given) | > 100 µM | > 100 | > 100 µM | > 100 µM | > 100 µM | > 100 µM | > 100 µM | > 100 | > 100 | > 100 µM | > 100 µM | > 100 |  |  |  |  |  |  |  | 
3 | COc1cc(OC2OC(CO)C(O)C(O)C2O)c2c(O)c3c(=O)cc(C)oc3cc2c1 (stereo not given) |  | > 100 | > 100 µM | > 100 µM | > 100 µM | > 100 µM | > 100 µM |  | > 100 | > 100 µM | > 100 µM | > 100 |  |  |  |  |  |  |  | 
4 | CCOC(=O)Cc1cc(OC)c(OC)cc1/C(Cl)=C(\CO)c1ccc(OC)c(OC)c1 | > 100 µM | > 100 | > 100 µM | > 100 µM | > 100 µM | > 100 µM | 54 µM | > 100 |  | > 100 µM |  |  |  |  |  |  |  |  |  | 
5 | CCCCCC(=O)N[C@@H](c1ccco1)[C@@H](O)C(=O)O[C@H]1C[C@@]2(O)[C@@H](OC(=O)c3ccccc3)[C@@H]3[C@]4(OC(C)=O)CO[C@@H]4C[C@H](O)[C@@]3(C)C(=O)[C@H](OC(C)=O)C(=C1C)C2(C)C |  | > 25 |  |  | > 25 µM |  |  |  | > 25 | 0.0284 µM | 0.0101 µM |  | 0.00401 | 0.00226 µM | 0.000206 | 0.0009 µM | 0.00109 |  |  | 
6 | O=C1C(Cl)N(c2c(Cl)cccc2Cl)C1c1c[nH]c2ccccc12 (stereo not given) | > 100 µM | > 100 | > 100 µM | > 100 µM | > 100 µM | > 100 µM | > 100 µM | > 100 |  | > 100 µM |  |  |  |  |  |  |  |  |  | 
7 | O=C(Nc1ccc([N+](=O)[O-])cc1)Nn1cnnc1 |  | > 100 | > 100 µM | > 100 µM | 43.2 µM | > 100 µM | > 100 µM |  | > 100 | 63.4 µM | > 100 µM | 69.7 |  |  |  |  |  |  |  | 
8 | C[N+](C)(CCCCCC[N+](C)(C)CCCN1C(=O)c2cccc3cccc(c23)C1=O)CCCN1C(=O)c2cccc3cccc(c23)C1=O | > 100 µM | > 100 | > 100 µM | > 100 µM | > 100 µM | > 100 µM |  | > 100 | > 100 | > 100 µM | > 100 µM | > 100 |  |  |  |  |  |  |  | 
9 | COc1ccccc1/C=C(/C)[N+](=O)[O-] | 4.96 µM and 4.41 µM |  | 4.21 µM and 5.4 µM | 3.93 µM and 3.12 µM | 23.6 µM and 14.8 µM | 5.15 µM and 7.34 µM | > 100 µM and 54.7 µM | 4.74 | > 100 | 20 µM and 6.33 µM | 3.12 µM and 2.36 µM |  |  | 14.1 µM and 6.99 µM | 1.74 | 5.31 µM and 2.53 µM |  | 4.07 µM and 1.94 µM | 0.688 µM and 1.71 µM | 0.593
10 | O=NN1C(c2ccccc2)CNC(=O)CC1c1ccccc1 (stereo not given) | > 100 µM | > 100 | > 68.8 µM | > 100 µM | > 100 µM | > 100 µM | > 67.9 µM | 81.1 | > 100 | 98.8 µM |  |  |  |  |  |  |  |  |  | 
11 | CC(C)(O)/C1=C/C=C/CCCCCCCCCC1 | > 100 µM | > 100 | 98.6 µM | > 100 µM |  | > 100 µM | 2.85 µM |  | > 100 | > 100 µM | > 100 µM | > 100 |  |  |  |  |  |  |  | 
12 | O=[N+]([O-])C(=C/c1ccccc1)/C(=C\c1ccccc1)[N+](=O)[O-] | 49.4 µM | 33 |  | 30.7 µM | 38.1 µM | > 100 µM | 37 µM | 33.5 | 34.4 | 36.2 µM | 29.7 µM | 31.4 |  |  |  |  |  |  |  | 
13 | CCNC(=O)C(C)C1CCC2(C)C=CC(=O)C(C)=C2C1O (stereo not given) | > 100 µM | > 100 | > 100 µM | > 100 µM | > 100 µM | > 100 µM | > 100 µM | > 100 | > 100 | > 100 µM |  |  |  |  |  |  |  |  |  | 
14 | OCC1O[C@H](O[C@@H]2CCCN3CC(O)C(O)[C@@H]23)C(O)C(O)C1O (stereo not given in full) | > 100 µM |  | > 100 µM | > 100 µM | > 100 µM | > 100 µM | > 100 µM |  |  | > 100 µM |  |  |  |  |  |  |  |  |  | 
